The values below come from US8071637B2, “Dithiolopyrrolones compounds and their therapeutic applications” (Welichem Biotech Inc., priority 2006, dated 2011).

Experiment [1] has as its system mouse peripheral white blood cells. As to the kind of experiment: Activity of increasing white blood cells (WBC) in mice. The format is in vivo, CDF1 male mice. As to conditions: peripheral blood on day 7. The method, then:
This activity was determined using CDF1 male mice (18-20 g): mice were grouped as: vehicle, 30 mg/kg cyclophosphamide (CTX), 15 mg/kg test compounds. The mice were treated by IP injection: test compounds on day 1, 3, and 5 for three doses, vehicle and CTX daily for 6 days. On day 7, peripheral blood samples were collected and blood cells counted.

The subject of experiment [2] is white blood cells. Description: Therapeutical effect on white blood cells of mice pretreated with CTX. The class given is in vivo, CDF1 male mice. As to conditions: for number of white blood cell account, Day 6: Day 6: after CTX 30 mg/kg IP daily for 6 days, before therapeutical treatment started on 7th day. The method, then:
This activity was determined using CDF1 male mice: mice were grouped and treated with daily CTX IP injection of 30 mg/kg for 6 days. […] Positive control group was treated with daily subcutaneously injection of 20 μg/kg G-CSF. Peripheral blood samples were collected and blood cells counted on the 10th day.

Experiment [3] deals with white blood cells of beagle dog. Description: Activity of increasing WBC in dogs. The conditions noted are these: for WBC: blood count day 5; for % increase (compared with the control): day 5. The format is in vivo. The protocol:
The effect of the test compounds was tested on beagle dog with a daily IV injection at different doses for four days. The blood account was done at day 5.

Turning to `O=P1(N(CCCl)CCCl)NCCCO1` (centres unmarked) [CTX, cyclophosphamide, reference compound], the WBC in experiment [1] (CTX 30 mg/kg IP daily for 6 days) was 1.41 ± 0.50 ×10^9/L. Also, the “number of white blood cell account, Day 6” value (“number … Day 6” for short) in experiment [2] is 1.5 ± 0.2 ×10^9/L. Moreover, in experiment [2] (Day 10: CTX 30 mg/kg IP daily for 6 days only), the “number of white blood cell account, Day 10” value (“number … Day 10” for short) was 4.8 ± 0.8 ×10^9/L.

For `COc1ccc(-n2c3cssc-3c(NC(=O)c3cc(C(F)(F)F)cc(C(F)(F)F)c3)c2=O)c(OC)c1` [compound 0058, N-[4-(2,4-Dimethoxy-phenyl)-5-oxo-4,5-dihydro-[1,2]dithiolo[4,3-b]pyrrol-6-yl]-3,5-bis-trifluoromethyl-benzamide], the WBC in experiment [1] (test compound 15 mg/kg IP on day 1, 3 and 5) was 23.9 ± 8.9 ×10^9/L; in experiment [3] (1 mg/kg daily IV for four days), 13.0 ± 2.0 ×10^9/L; in experiment [3] (2 mg/kg daily IV for four days), 16.8 ± 1.0 ×10^9/L; in experiment [3] (4 mg/kg daily IV for four days) it was 21.5 ± 4.1 ×10^9/L; in experiment [3] (8 mg/kg daily IV for four days), 28.8 ± 7.0 ×10^9/L. The “% increase (compared with the control)” value was determined as 15.9% in experiment [3] (1 mg/kg daily IV for four days), 48.2% in experiment [3] (2 mg/kg daily IV for four days), 90.3% in experiment [3] (4 mg/kg daily IV for four days) and 154.9% in experiment [3] (8 mg/kg daily IV for four days). The “effect on white blood accounts in dogs (in words)” value in experiment [3] (daily IV, 1-8 mg/kg, four days) is listed as “significantly increased white blood accounts”. Moreover, in experiment [2], the “number … Day 6” value is given as 2.1 ± 0.8 ×10^9/L. The “number … Day 10” value in experiment [2] (Day 10: CTX 30 mg/kg x 6 days, then test compound 15 mg/kg daily for 3 days from day 7) was 16.2 ± 2.1 ×10^9/L.

B1: G-CSF: granulocyte-colony stimulating factor, protein that selectively stimulates production of white blood cells; positive control (protein, chains of the INN, looked up)
chain: MTPLGPASSLPQSFLLKCLEQVRKIQGDGAALQEKLCATYKLCHPEELVLLGHSLGIPWAPLSSCPSQALQLAGCLSQLHSGLFLYQGLLQALEGISPELGPTLDTLQLDVADFATTIWQQMEELGMAPALQPTQGAMPAFASAFQRRAGGVLVASHLQSFLEVSYRVLRHLAQP
modifications: N-terminal methionine, non-glycosylated
As to B1, in experiment [2], the “number … Day 6” value is recorded as 1.8 ± 0.7 ×10^9/L. Besides, the “number … Day 10” value in experiment [2] (Day 10: CTX 30 mg/kg x 6 days, then G-CSF 20 μg/kg daily subcutaneously (positive control)) was 14.7 ± 1.8 ×10^9/L.
